From publication PMC12646587, “Advanced cardiotoxicity profiling using field potential imaging with UHD-CMOS-MEA in human iPSC-derived cardiomyocytes” (Toxicological Sciences, 2025)
Where two headings read alike, the source gives them in different places.

Assays:
[1] = system: human iPSC-derived cardiomyocytes; test: Field potential imaging (FPI) with UHD-CMOS-MEA, acute drug treatment; format: cell-based; conditions: for BR (beat rate): arrows = direction, – = none; for FPI (concentration at which changes were detected): changed parameters in brackets in each cell; for significant changes in any of the measured parameters (17 beat parameters): 10, 100 μM
Protocol: Cryopreserved iCell Cardiomyocytes (FUJIFILM Cellular Dynamics, Inc.) were handled according to the supplier’s instructions. Cells were thawed in a 37 °C water bath for approximately 3 min and resuspended in iCell Thawing Medium to prepare a cell suspension at a final concentration of 1 × 10^7 cells/ml. A total of 10 µl of the cell suspension (100,000 cells per chip) was seeded directly onto the fibronectin-coated electrode area of each chip. Chips were incubated at 37 °C for 1 h to allow cell attachment, after which 1 ml of maintenance medium was gently added. […] Thereafter, medium exchanges were performed twice weekly by replacing half the medium volume.
Compounds were dissolved in culture medium containing 0.1% DMSO and administered cumulatively at increasing concentrations. Drug solutions were applied directly to the culture wells, and measurements were initiated 30 min after administration. […] All recordings were performed under spontaneous beating conditions, with no external pacing applied.
Recordings were performed at a sampling rate of 2 kHz, with a 2-min recording duration per condition. Data acquisition was controlled via proprietary software (Sony Semiconductor Solutions), and all raw signals were stored for offline analysis. All experiments were conducted in a humidified environment at 37 °C with 5% CO2, ensuring physiological conditions during both drug exposure and recording.
Spikes from hiPSC-derived cardiomyocytes were initially detected at each electrode using a voltage threshold of ±100 µV via BinViewer software (SCREEN Holdings Co., Ltd, Japan). The resulting spike data were then processed using a custom MATLAB (MathWorks, Natick, MA) script to perform beat detection. Firing count histograms were generated using a bin size of 0.5 ms, and peak detection within these histograms identified the timing and propagation duration of beats across the electrode array. For each electrode, the maximum spike amplitude and its corresponding peak timing were calculated to generate heat maps of field potential amplitude and activation timing. […]

[2] = system: hiPSC-CMs; test: Conventional MEA recording (16-electrode Axion Maestro), acute exposure; format: cell-based, human
Protocol: To enable comparison with the UHD-CMOS-MEA recordings, conventional extracellular field potential recordings were performed using 16-electrode MEA plates on a commercially available MEA system (Axion Maestro, Axion Biosystems), in accordance with the general principles of the CiPA initiative. hiPSC-CMs were cultured and maintained on the MEA plates under spontaneous beating conditions at 37 °C. Recordings were conducted after 10 to 14 DIV, and data acquisition and beat detection were performed using the built-in algorithms of the AxIS software (Axion Biosystems), without the use of external pacing. […] Each compound was applied under acute exposure conditions, and field potential recordings were obtained for 30 min following drug administration.
To evaluate the measurement capabilities of a conventional MEA system, the same set of 7 compounds was tested using the 16-electrode Axion Maestro platform.

[3] = cited from earlier work
[4] = system: NaV; conditions: cited from earlier work
[5] = system: CaV; conditions: cited from earlier work
[6] = system: cardiomyocytes; conditions: cited from earlier work
[7] = system: cardiomyocytes; conditions: BR20 (20% reduction in beat rate), cited from earlier work
[8] = system: cardiomyocytes; conditions: CTD90 ↑; ref Lu et al. 2019; cited from earlier work
[9] = system: human iPSC-derived cardiomyocytes; test: PCA of beat parameters: cardiotoxicity risk and mechanism classification; format: cell-based; conditions: for position in PCA space: across all tested concentrations
Protocol: Each parameter set was evaluated for its ability to separate cardiotoxic and non-cardiotoxic compounds while maintaining minimal variance among negative controls. […] To assess cardiotoxicity, PCA scores of test compounds were plotted in the PC space, and their positions were compared with the SD-defined zones of the negative control group. Risk levels were classified as follows: Low risk (within 1 SD), medium risk (between 1 and 2 SD), and high risk (beyond 2 SD). Dose-dependent cardiotoxicity potential was estimated based on displacement from the negative control cluster.
To establish a risk classification framework, the standard deviation (SD) range of negative control compounds in PCA space was used to define 3 zones: Within the SD range (low risk), between 1 and 2 SD (medium risk), and beyond 2 SD (high risk) (Fig. 6B). Risk levels derived from PCA distribution were compared with IC50 and Cmax values reported for each compound and associated ion channels (Table 5).

[10] = system: hERG; conditions: read-out: IC50 hERG; ref Clements et al. 2015; cited from earlier work
[11] = acute, statistically significant change vs before

In the case of `CC(C)COCC(CN(Cc1ccccc1)c1ccccc1)N1CCCC1` (stereo not drawn) [Bepridil], the “Amp. CV” value [1, 11] is reported as “decreased and ↓”, the “IBI (interbeat interval)” value [1, 11] is reported as “↓” and the “IBI CV” value [1, 11] is reported as “decreased and ↓”. For the same compound, the “Veloc. CV” value [1, 11] was “decreased and ↓”, the “Veloc. STV” value [1, 11] was “↓” and the IBI ([2]; acute) was “statistically significant changes”. The “IBI variability, amplitude variability, conduction velocity variability and STV of conduction” value ([2]; acute) was “not detected”, the “magnitude of change in beat frequency and IBI” value ([2]; acute) was “less than 5%” and the “Cmax Free” value ([3]; ref Crumb et al. 2016) was 0.032 ([Crumb et al. 2016]) μM. The IC50 ([4]; ref Clements et al. 2015) was 2.3 µM, the IC50 ([5]; ref Clements et al. 2015) was 1 µM and the MEA assay ([6]; FPD, ref Kaneko et al. 2014) was 10 ([Kaneko et al. 2014]) (FPD) µM. For the same compound, the Impedance assay ([7]; ref Guo et al. 2013) was 0.03 ([Guo et al. 2013]) (BR20) µM and the HCA assay [8] was 1.0 ([Lu et al. 2019]) (CTD90 ↑) µM.
With `C=C[C@H]1C[N@@]2CC[C@H]1C[C@@H]2[C@@H](O)c1ccnc2ccc(OC)cc12` [Quinidine] the “Amp. (amplitude)” value [1, 11] was “decreased and ↓”, the “Area (propagation area)” value [1, 11] was “decreased and ↓” and the “Area CV” value [1, 11] was “increasing and ↑”. The “IBI (interbeat interval)” value [1, 11] was “increasing and ↑”, the “BR (beat rate)” value [1, 11] was “decreased and ↓” and the IBI ([2]; acute) was “prolonged”. The beat frequency ([2]; acute) was “reduced”, the conduction velocity ([2]; acute) was “decreased” and the “field potential (spike) amplitude” value ([2]; acute) was “decreased”. The propagation area ([2]; acute) was “decreased”, the “position on the PCA plot relative to mechanism-of-action groups” value ([9]; 10 μM) was “plotted near compounds acting on hERG channels” and the “Cmax Free” value ([3]; ref Blinova et al. 2018) was 3 ([Blinova et al. 2018]) μM. For the same compound, the MEA assay ([6]; FPD, ref Harris et al. 2013) was 0.3 ([Harris et al. 2013]) (FPD) µM and the Impedance assay ([7]; ref Guo et al. 2013) was 10 ([Guo et al. 2013]) (BR20) µM.
For `COc1ccc(CCN(C)CCCC(C#N)(c2ccc(OC)c(OC)c2)C(C)C)cc1OC` (stereo not drawn) [Verapamil], the “Amp. CV” value [1, 11] was “↓”, the “Amp. STV” value [1, 11] was “↓” and the “Dist Origin” value [1, 11] was “reduced and ↓”. The “Dist Origin STV” value [1, 11] was “↓”, the “IBI (interbeat interval)” value [1, 11] was “reduced and ↓” and the “No. of Origin” value [1, 11] was “↓”. For the same compound, the “BR (beat rate)” value [1, 11] was “increased and ↑”, the “FPI (concentration at which changes were detected)” value [1] was 0.003 (IBI, Amp. STV, Dist Origins, Dist Origins STV) μM and the IBI ([2]; acute) was “shortened”. The beat frequency ([2]; acute) was “increased” and the “field potential (spike) amplitude” value ([2]; acute) was “decreasing trend”.
In the case of `CC1(C)S[C@@H]2[C@H](NC(=O)[C@H](N)c3ccc(O)cc3)C(=O)N2[C@H]1C(=O)O` [Amoxicillin], the “significant changes in any of the measured parameters (17 beat parameters)” value ([1]; acute) is reported as “did not induce significant changes” and the “position in PCA space” value [9] is reported as “remained near the origin”.
For `CC(C)NCC(O)c1ccc(O)c(O)c1` (stereo not drawn) [Isoproterenol], the “average number of excitation origins per beat” value ([1]; 10 nM, n = 6 wells) was 1.51 ± 0.02, the “total number of active electrodes” value ([1]; 30 nM, Before: 149,149.4 ± 3,090.5) was 149,185.2 ± 2,882.6 and the beating frequency ([1]; 30 nM, before 35.5 bpm) was 57.0 bpm. The “average number of excitation origins per beat” value ([1]; 30 nM, n = 6 wells) was 1.61 ± 0.02, the “Area STV” value [1, 11] was “decreased and ↓” and the “IBI (interbeat interval)” value [1, 11] was “↓”. For the same compound, the “BR (beat rate)” value [1, 11] was “increased and ↑”, the “FPI (concentration at which changes were detected)” value [1] was 0.01 (BR, IBI) μM and the “FPI PCA (concentration at which changes were detected)” value [9] was 0.01 µM. For the same compound, the Impedance assay ([7]; ref Doherty et al. 2015) was 0.01 ([Doherty et al. 2015]) (BR20) µM.
In the case of `COc1ccc([C@@H]2Sc3ccccc3N(CCN(C)C)C(=O)[C@@H]2OC(C)=O)cc1` [Diltiazem], the “IBI (interbeat interval)” value [1, 11] is reported as “reduced and ↓”, the “BR (beat rate)” value [1, 11] is reported as “increased and ↑” and the IBI ([2]; acute) is reported as “shortened”. For the same compound, the beat frequency ([2]; acute) was “increased” and the “field potential (spike) amplitude” value ([2]; acute) was “significant reduction”.
With `CC(C)N(CCC(C(N)=O)(c1ccccc1)c1ccccn1)C(C)C` (stereo not drawn) [Disopyramide] the “Amp. (amplitude)” value [1, 11] was “↓”, the “Area (propagation area)” value [1, 11] was “↓” and the “IBI (interbeat interval)” value [1, 11] was “prolonged and ↑”. For the same compound, the “Veloc. (conduction velocity)” value [1, 11] was “↓”, the “BR (beat rate)” value [1, 11] was “↓” and the “FPI (concentration at which changes were detected)” value [1] was 1 (BR) μM. For the same compound, the “FPI PCA (concentration at which changes were detected)” value [9] was 1 µM, the “Cmax Free” value ([3]; ref Liu et al. 2021) was 0.7 ([Liu et al. 2021]) μM and the IC50 ([4]; ref Kramer et al. 2013) was 168 µM. For the same compound, the IC50 ([5]; ref Kramer et al. 2013) was 1040 µM, the MEA assay ([6]; FPDc10 (10% prolongation of FPDc), ref Ando et al. 2017) was 0.74 ([Ando et al. 2017]) (FPDc10) µM and the HCA assay [8] was 10 ([Lu et al. 2019]) (CTD90 ↑) µM.
With `Cc1cccc(C)c1OCC(C)N` (stereo not drawn) [Mexiletine] the “beat-wise variability in conduction speed” value ([1]; 10 µM, post-treatment) was “increased variability”, the average conduction velocity ([1]; 10 µM, before 0.147 ± 0.004, n = 6 wells) was 0.109 ± 0.009 m/s and the “proportion of the area with conduction velocity exceeding 0.3 m/s” value ([1]; 10 µM, before 4.9%) was 0.6%. For the same compound, the beating frequency ([1]; 10 µM, before 64.5 bpm) was 31.5 bpm, the “number of active electrodes” value ([1]; 10 µM, before 115,437.9 ± 582.1) was 93,595.6 ± 11,323.1 and the “Amp. (amplitude)” value [1, 11] was “decreased and ↓”. The “Amp. CV” value [1, 11] was “increased and ↑”, the “Area (propagation area)” value [1, 11] was “decreased and ↓” and the “IBI (interbeat interval)” value [1, 11] was “increase and ↑”. The “Veloc. (conduction velocity)” value [1, 11] was “decreased and ↓”, the “BR (beat rate)” value [1, 11] was “decreased and ↓” and the “FPI (concentration at which changes were detected)” value [1] was 10 (BR, IBI, Ampl. Area, Veloc.) μM. The spontaneous beating ([2]; 10 μM) was “ceased entirely”, the IBI ([2]; acute) was “reached statistical significance” and the beat frequency ([2]; acute) was “reached statistical significance”. The conduction velocity ([2]; acute) was “not captured”, the “field potential (spike) amplitude” value ([2]; acute) was “increase” and the “magnitude of change in beat frequency and IBI” value ([2]; acute) was 2.2%. The propagation area ([2]; acute) was “not captured”, the “FPI PCA (concentration at which changes were detected)” value [9] was 1 µM and the “Cmax Free” value ([3]; ref Crumb et al. 2016) was 2.5 ([Crumb et al. 2016]) μM. For the same compound, the IC50 ([4]; ref Clements et al. 2015) was 38 µM, the IC50 ([5]; ref Clements et al. 2015) was 125 µM and the MEA assay ([6]; Spike amp., ref Clements and Thomas 2014) was 3.0 ([Clements and Thomas 2014]) (Spike amp.) µM. For the same compound, the Impedance assay ([7]; ref Guo et al. 2013) was 3.0 ([Guo et al. 2013]) (BR20) µM and the IC50 [10] was 62.2 µM.
With `CC(=O)Oc1ccccc1C(=O)O` [Aspirin] the “significant changes in any of the measured parameters (17 beat parameters)” value ([1]; acute) was “did not induce significant changes” and the “position in PCA space” value [9] was “remained near the origin”.
